# Laboratory results taken from patent US20040142864A1, “Crystal structure of PIM-1 kinase” (Plexxikon, Inc., priority 2002, published 2004).
# Molecular target: PIM-1 (Homo sapiens, UniProt P11309)
# Assay: PY20 AlphaScreen kit kinase inhibition assay
# Chain of PIM-1 (P11309 whole entry): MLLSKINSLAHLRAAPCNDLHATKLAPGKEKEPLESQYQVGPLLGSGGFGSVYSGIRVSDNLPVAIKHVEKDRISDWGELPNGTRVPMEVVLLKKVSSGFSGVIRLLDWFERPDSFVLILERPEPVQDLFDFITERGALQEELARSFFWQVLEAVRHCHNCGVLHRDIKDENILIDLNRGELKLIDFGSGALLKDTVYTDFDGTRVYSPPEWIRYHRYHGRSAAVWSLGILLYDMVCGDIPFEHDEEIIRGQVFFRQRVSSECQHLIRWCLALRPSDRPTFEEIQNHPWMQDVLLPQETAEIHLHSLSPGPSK
compound,measurement,value
CSc1cccc(Nc2ncc3cc(-c4c(Cl)cccc4Cl)c(=O)n(C)c3n2)c1,IC50,10 nM
